Test results as given in the supplement of paper PMC10307832.

Legend:
Assay in all cases: relative viability (nuclei count vs DMSO), 5 days (fraction); higher = more cells survive
[1] = compound: Cc1ccc(NC(=O)c2ccc(CN3CCN(C)CC3)cc2)cc1Nc1nc(-c2cccnc2)cs1 [Masitinib] + COc1cccc2cc(-c3nc([C@H]4CC[C@H](C(=O)O)CC4)n4ncnc(N)c34)[nH]c12 [OSI-027] (partner 0.5 µM)
Summary of the method: (§1)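 The day after seeding in 1536-well plates, lung cancer cell lines were treated by pin tool with a single drug, or with a fixed anchor-drug dose together with five library-drug doses (not always all listed) in √10 steps. After 5 days, a combined fix-and-stain solution (final 0.05% Triton X-100, 1% formaldehyde, 1 ug/ml Hoechst) was added. Nuclei counted on 4× images gave relative viability as treated counts over vehicle counts, reported as the median of duplicate plates.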

[2] = compound: CC1=CC(=CC=C1)NC2=NC(=CS2)C3=CC=NC=C3 + COc1cccc2cc(-c3nc([C@H]4CC[C@H](C(=O)O)CC4)n4ncnc(N)c34)[nH]c12 [OSI-027] (partner 0.5 µM)
Summary of the method: as §1

[3] = compound: CC1=CC(=CC=C1)NC2=NC(=CS2)C3=CC=NC=C3 + C[C@@H](Oc1cc(-c2cnn(C3CCNCC3)c2)cnc1N)c1c(Cl)ccc(F)c1Cl [Crizotinib] (partner 1 µM)
Summary of the method: as §1

[4] = compound: CC1=CC(=CC=C1)NC2=NC(=CS2)C3=CC=NC=C3 + Nc1ncn([C@H]2C[C@H](O)[C@@H](CO)O2)c(=O)n1 [Decitabine] (partner 2 µM)
Summary of the method: as §1

NCI-H727 was tested, and the relative viability ([1]; first compound 0.01 µM) was 0.523, the relative viability ([1]; first compound 0.03162 µM) was 0.601 and the relative viability ([1]; first compound 0.1 µM) was 0.637. It also gave a relative viability ([1]; first compound 0.3162 µM) of 0.576, a relative viability ([1]; first compound 1 µM) of 0.442 and a relative viability ([2]; first compound 0.253 µM) of 0.412. It also gave a relative viability ([2]; first compound 0.8 µM) of 0.597, a relative viability ([2]; first compound 2.53 µM) of 0.618 and a relative viability ([2]; first compound 8 µM) of 0.568. It also gave a relative viability ([3]; first compound 0.08 µM) of 0.621, a relative viability ([3]; first compound 0.253 µM) of 0.737 and a relative viability ([3]; first compound 0.8 µM) of 0.922. The relative viability ([3]; first compound 2.53 µM) was 0.759, the relative viability ([3]; first compound 8 µM) was 0.575 and the relative viability ([4]; first compound 0.08 µM) was 0.88. The relative viability ([4]; first compound 0.8 µM) was 0.864 and the relative viability ([4]; first compound 8 µM) was 0.836.

HCC-15 showed a relative viability ([1]; first compound 0.01 µM) of 0.635, a relative viability ([1]; first compound 0.03162 µM) of 0.68 and a relative viability ([1]; first compound 0.1 µM) of 0.641. For the same cell line, the relative viability ([1]; first compound 0.3162 µM) was 0.588, the relative viability ([1]; first compound 1 µM) was 0.629 and the relative viability ([2]; first compound 0.08 µM) was 0.533. It also gave a relative viability ([2]; first compound 0.253 µM) of 0.607, a relative viability ([2]; first compound 0.8 µM) of 0.661 and a relative viability ([2]; first compound 2.53 µM) of 0.595. For the same cell line, the relative viability ([2]; first compound 8 µM) was 0.561, the relative viability ([3]; first compound 0.08 µM) was 0.826 and the relative viability ([3]; first compound 0.253 µM) was 0.807. The relative viability ([3]; first compound 0.8 µM) was 0.777, the relative viability ([3]; first compound 2.53 µM) was 0.833 and the relative viability ([3]; first compound 8 µM) was 0.79. For the same cell line, the relative viability ([4]; first compound 0.08 µM) was 0.621, the relative viability ([4]; first compound 0.253 µM) was 0.662 and the relative viability ([4]; first compound 0.8 µM) was 0.58. The relative viability ([4]; first compound 2.53 µM) was 0.582 and the relative viability ([4]; first compound 8 µM) was 0.625.

Cell Line NCI-H1650 has a relative viability ([1]; first compound 0.01 µM) of 0.58, a relative viability ([1]; first compound 0.03162 µM) of 0.478 and a relative viability ([1]; first compound 0.1 µM) of 0.719. For the same cell line, the relative viability ([1]; first compound 0.3162 µM) was 0.499, the relative viability ([1]; first compound 1 µM) was 0.543 and the relative viability ([2]; first compound 0.08 µM) was 0.619. For the same cell line, the relative viability ([2]; first compound 0.253 µM) was 0.508, the relative viability ([2]; first compound 0.8 µM) was 0.625 and the relative viability ([2]; first compound 2.53 µM) was 0.472. The relative viability ([2]; first compound 8 µM) was 0.227, the relative viability ([3]; first compound 0.08 µM) was 0.946 and the relative viability ([3]; first compound 0.253 µM) was 0.728. It also gave a relative viability ([3]; first compound 0.8 µM) of 0.83, a relative viability ([3]; first compound 2.53 µM) of 0.919 and a relative viability ([3]; first compound 8 µM) of 1.03. For the same cell line, the relative viability ([4]; first compound 0.08 µM) was 0.384, the relative viability ([4]; first compound 0.253 µM) was 0.38 and the relative viability ([4]; first compound 0.8 µM) was 0.478. The relative viability ([4]; first compound 2.53 µM) was 0.408 and the relative viability ([4]; first compound 8 µM) was 0.378.

ABC-1 was tested, and the relative viability ([1]; first compound 0.01 µM) was 0.432, the relative viability ([1]; first compound 0.03162 µM) was 0.52 and the relative viability ([1]; first compound 0.1 µM) was 0.516. It also gave a relative viability ([1]; first compound 0.3162 µM) of 0.334, a relative viability ([1]; first compound 1 µM) of 0.38 and a relative viability ([2]; first compound 0.08 µM) of 0.369. It also gave a relative viability ([2]; first compound 0.253 µM) of 0.427, a relative viability ([2]; first compound 0.8 µM) of 0.493 and a relative viability ([2]; first compound 2.53 µM) of 0.421. The relative viability ([2]; first compound 8 µM) was 0.319, the relative viability ([3]; first compound 0.08 µM) was 0.851 and the relative viability ([3]; first compound 0.253 µM) was 0.893. The relative viability ([3]; first compound 0.8 µM) was 1.03, the relative viability ([3]; first compound 2.53 µM) was 0.934 and the relative viability ([3]; first compound 8 µM) was 1.19. The relative viability ([4]; first compound 0.08 µM) was 1.01, the relative viability ([4]; first compound 0.8 µM) was 1.23 and the relative viability ([4]; first compound 2.53 µM) was 0.933. The relative viability ([4]; first compound 8 µM) was 0.626.

For LCLC-103H, the relative viability ([1]; first compound 0.01 µM) was 0.412, the relative viability ([1]; first compound 0.03162 µM) was 0.526 and the relative viability ([1]; first compound 0.1 µM) was 0.414. For the same cell line, the relative viability ([1]; first compound 0.3162 µM) was 0.459, the relative viability ([1]; first compound 1 µM) was 0.404 and the relative viability ([2]; first compound 0.08 µM) was 0.389. It also gave a relative viability ([2]; first compound 0.253 µM) of 0.448, a relative viability ([2]; first compound 0.8 µM) of 0.422 and a relative viability ([2]; first compound 2.53 µM) of 0.462. The relative viability ([2]; first compound 8 µM) was 0.342, the relative viability ([3]; first compound 0.08 µM) was 0.918 and the relative viability ([3]; first compound 0.253 µM) was 0.924. For the same cell line, the relative viability ([3]; first compound 0.8 µM) was 0.902, the relative viability ([3]; first compound 2.53 µM) was 1.02 and the relative viability ([3]; first compound 8 µM) was 0.888. It also gave a relative viability ([4]; first compound 0.08 µM) of 0.72, a relative viability ([4]; first compound 0.253 µM) of 0.664 and a relative viability ([4]; first compound 0.8 µM) of 0.672. It also gave a relative viability ([4]; first compound 2.53 µM) of 0.665 and a relative viability ([4]; first compound 8 µM) of 0.573.

Cell Line NCI-H460 has a relative viability ([1]; first compound 0.01 µM) of 0.796, a relative viability ([1]; first compound 0.03162 µM) of 0.705 and a relative viability ([1]; first compound 0.1 µM) of 0.674. It also gave a relative viability ([1]; first compound 0.3162 µM) of 0.558, a relative viability ([1]; first compound 1 µM) of 0.522 and a relative viability ([2]; first compound 0.08 µM) of 0.623. For the same cell line, the relative viability ([2]; first compound 0.253 µM) was 0.522, the relative viability ([2]; first compound 0.8 µM) was 0.628 and the relative viability ([2]; first compound 2.53 µM) was 0.486. For the same cell line, the relative viability ([2]; first compound 8 µM) was 0.341, the relative viability ([3]; first compound 0.08 µM) was 0.753 and the relative viability ([3]; first compound 0.253 µM) was 0.827. For the same cell line, the relative viability ([3]; first compound 0.8 µM) was 0.913, the relative viability ([3]; first compound 2.53 µM) was 1 and the relative viability ([3]; first compound 8 µM) was 0.811. The relative viability ([4]; first compound 0.08 µM) was 0.445, the relative viability ([4]; first compound 0.253 µM) was 0.432 and the relative viability ([4]; first compound 0.8 µM) was 0.464. It also gave a relative viability ([4]; first compound 2.53 µM) of 0.405 and a relative viability ([4]; first compound 8 µM) of 0.402.

In the case of EPLC-272H, the relative viability ([1]; first compound 0.01 µM) is reported as 0.257, the relative viability ([1]; first compound 0.03162 µM) is reported as 0.274 and the relative viability ([1]; first compound 0.1 µM) is reported as 0.281. The relative viability ([1]; first compound 0.3162 µM) was 0.315, the relative viability ([1]; first compound 1 µM) was 0.286 and the relative viability ([2]; first compound 0.08 µM) was 0.243. For the same cell line, the relative viability ([2]; first compound 0.253 µM) was 0.274, the relative viability ([2]; first compound 0.8 µM) was 0.258 and the relative viability ([2]; first compound 2.53 µM) was 0.27. The relative viability ([2]; first compound 8 µM) was 0.281, the relative viability ([3]; first compound 0.08 µM) was 0.854 and the relative viability ([3]; first compound 0.8 µM) was 0.877. For the same cell line, the relative viability ([3]; first compound 8 µM) was 0.885, the relative viability ([4]; first compound 0.08 µM) was 0.339 and the relative viability ([4]; first compound 0.253 µM) was 0.37. The relative viability ([4]; first compound 0.8 µM) was 0.348 and the relative viability ([4]; first compound 8 µM) was 0.352.
